Measured values: patent US11339124B2, “3-(benzylamino)-4-(cyclohexylamino)-n-(2-(piperazin-1-yl)ethyl)benzenesulfonamide derivatives and related ferrostatin-1 analogues as cell death inhibitors for treating e.g. stroke” (VIB VZW, priority 2018, dated 2022)
Where two headings read alike, the source gives them in different places.

How the values were obtained:
[1] = Microsomal (metabolic) stability, human liver microsomes; conditions: human liver microsomes, 0.5 mg protein/ml, 10 μM compound, 37° C.
Excerpt: By using the measured microsomal in vitro t1/2, a calculated value for the intrinsic clearance Clint can be determined. This value states the measure in which a drug that is not bound to plasma proteins is irreversibly removed from the body by the liver. This value is expressed in mL/min/kg which can be interpreted as the volume of blood in mL that is cleared of a drug per minute per kilogram of body weight. The CLint is less sensitive to used variables in ADME assays since the amount of microsomal protein and the volume of the incubation are all taken into account. (Sohlenius-Sternbeck et al., Xenobiotica, 2012, 42, 841-853)
Liver microsomes (20 mg protein/ml), NADPH regenerating system solutions A & B and 5 mM stock compound solution (100% DMSO) are prepared. The reaction mixture finally contains 713 μL purified water, 200 μL 0.5 M potassium phosphate pH 7.4, 50 μL NADPH regenerating system solution A (BD Biosciences Cat. No. 451220), 10 μL NADPH regenerating system solution B (BD Biosciences Cat. No. 451200) and 2 μL of the compound stock solution (10 μM final concentration). The reaction mixture is warmed to 37° C. for 5 minutes in a water bath and the reaction is initiated by addition of 25 μL of liver microsomes (0.5 mg protein/ml final concentration). At different time points (0 min-15 min-30 min-60 min-120 min-240 min-360 min-24 h), 20 μL is withdrawn and 80 μL cold acetonitrile is added on ice for 10 minutes. Then the mixtures are centrifuged at 13 000 rpm for 5 min at 4° C. The supernatant is further diluted in 90% water/MeCN (1/25) to fall within the range of the LC/MS/MS analysis. At each time point, the compound is analysed using LC/MS/MS with the same UPLC system as described above. A standard curve of six points was made to fit the measured concentrations. Verapamil was used as a positive control.
All obtained readouts were processed using Microsoft Excel. In order to determine the microsomal half-life t1/2 of the compounds, the rate constant k was determined by plotting the exponential decay graphs using GraFit. Microsomal t1/2 was determined using the following formula: […]

[2] = tested on: IMR-32 Neuroblastoma cells; assay: Erastin-induced ferroptosis in IMR-32 neuroblastoma cells (Sytox Green cell death readout); format: cell-based; conditions: IMR-32 cells, 10 μM erastin, compounds 1 nM to 1 μM, triplicate, read-out: IC50, antiferroptotic activity in response to erastin-induced ferroptosis
Description: In the present invention the potency of a compound inhibiting (or reducing) ferroptosis and/or oxytosis are determined in in vitro or in vivo assays. Typically in vitro assays are used to measure the potency of a candidate compound. Examples of suitable in vitro assays are cellular assays. One non-limiting example of an assay involves the use of the IMR-32 neuroblastoma cell line. The latter is stimulated to enter into ferroptosis upon stimulation with 10 μM erastin, a documented ferroptosis inducer (see for example Dixon et al (2012) Cell 149, 1060-1072 and ferroptosis inhibitors are evaluated for the prevention of erastin induced ferroptosis. Yet another assay is based the glutamate-induced cell death in the hippocampal cell line HT22 and ferroptosis/oxytosis inhibitors are evaluated for the prevention of cell death (see Henke N. et al (2013) Cell Death and Disease 4, e470). Still another assay is based on the sorafinib induced cell death (described to be iron dependent cell death) in hepatocellular carcinoma cells and ferroptosis inhibitors are evaluated for the prevention of cell death (see Louandre C. et al (2013) Int. J. Cancer 133, 1732). The calculated potency of a compound inhibiting ferroptosis and/or oxytosis is typically depicted as an IC50 value. Examples of suitable in vivo assays are typically pre-clinical disease models of for example mice for the diseases benefiting the application of ferroptosis and/or oxytosis inhibitors, as described herein. One non-limiting example of an in vivo assay is based on inducing liver damage in mice by administering the herbicide diquat dibromide monohydrate and ferroptosis inhibitors are evaluated based on reduced levels of liver transaminases in serum (see Ran Q et al (2004) J. Biol. Chem. 279, 53, 55137).
The IC50 values for the individual compounds of the invention were determined in the neuroblastoma, IMR-32 cell line. In brief, IMR-32 cells were subjected to 10 μM erastin, the latter compound is known to induce ferroptosis. A concentration gradient (ranging from 1 nM to 1 μM) of the compounds was applied to the cells. These experiments were performed in a 96-well format (in triplicate), and cell death was analyzed in a fluorescent plate reader by use of a fluorescent cell death dye (1.5 μM Sytox Green). The IC50 values depicted in Table 1 are the concentration values for the individual compounds which are able to overcome ferroptosis.

[3] = Kinetic solubility (turbidimetric method); format: physicochemical; conditions: 10 mM PBS pH 7.4, 2% DMSO, test range 3.125-200 μM, 2 h at 37° C.
Description: A turbidimetric method was used. First a series of DMSO compound stock solutions was prepared ([…]). An aliquot of 4 μL stock solution was added to 196 μL PBS buffer (pH 7.4). A series of concentrations were prepared (3.13-200 μM), including a blank on a microtiter plate. (2% DMSO-D6) The microtiter plate was shaken for 10 seconds and incubated for 2 hours at 37° C. When there was no turbidity measured at a given concentration the sample was assumed to be dissolved.

[4] = tested on: acute iron poisoning induced organ damage; assay: Acute iron poisoning (FeSO4) induced organ damage, plasma LDH and creatine kinase; format: in vivo
Description: Equimolar amounts of ferroptosis inhibitors (˜10 mg/kg) were injected iv 15 min before ip injection of FeSO4 (300 mg/kg). Plasma was collected 2 h after FeSO4-challenge and analyzed for the presence of lactate dehydrogenase (LDH) and creatine kinase. Fer-1 is ferrostatin, 3234 is compound 37,3206 is compound 38 and 3203 is compound 39 (see Table 1 for numbering and structure). […] Equimolar amounts of ferroptosis inhibitors (˜10 mg/kg) were injected iv 30 min after ip injection of FeSO4 (300 mg/kg). Plasma was collected 8 h after FeSO4-challenge and analyzed for the presence of lactate dehydrogenase (LDH) and creatine kinase.
We identified acute iron poisoning as a novel experimental model for in rhabdomyolysis-induced kidney failure.

| Compound | Solubility (kinetic) [3] [µM] | Microsomal stability (t1/2), Human [1] [min] | IC50 [2] [nM] | Protection against organ damage: plasma lactate dehydrogenase (LDH) and creatine kinase levels, prophylactic setting ([4]; ~10 mg/kg iv 15 min before FeSO4 300 mg/kg ip, plasma 2 h after challenge (FIG. 5A)) | Protection against organ damage: plasma lactate dehydrogenase (LDH) and creatine kinase levels, therapeutic setting ([4]; ~10 mg/kg iv 30 min after FeSO4 300 mg/kg ip, plasma 8 h after challenge (FIG. 5B)) | IC50 ([2]; Homo sapiens) [nM] |
| --- | --- | --- | --- | --- | --- | --- |
| CCOC(=O)c1ccc(NC2CCCCC2)c(N)c1 [Compound 1, ferrostatin-1] | >200 | 6.54 ± 0.18 | 33 | does not show any significant protection | only shows minor protection |  |
| CN(C)CCNS(=O)(=O)c1ccc(NC2CCCCC2)c(N)c1 [Compound 20, 3-amino-4-(cyclohexylamino)-N-(2-(dimethylamino)ethyl)benzenesulfonamide] | >200 |  |  |  |  | 160 |
| CN1CCN(CCNS(=O)(=O)c2ccc(NC3CCCCC3)c(N)c2)CC1 [Compound 24, 3-amino-4-(cyclohexylamino)-N-(2-(4-methylpiperazin-1-yl)ethyl)benzenesulfonamide] | >200 |  |  |  |  | 236 |
| Nc1cc(S(=O)(=O)NCCN2CCOCC2)ccc1NC1CCCCC1 [Compound 25, 3-amino-4-(cyclohexylamino)-N-(2-morpholinoethyl)benzenesulfonamide] | >200 |  |  |  |  | 448 |
| COCCNS(=O)(=O)c1ccc(NC2CCCCC2)c(N)c1 [Compound 26, 3-amino-4-(cyclohexylamino)-N-(2-methoxyethyl)benzenesulfonamide] | >200 |  |  |  |  | 492 |
| CNCCNS(=O)(=O)c1ccc(NC2CCCCC2)c(N)c1.Cl [Compound 27, 3-amino-4-(cyclohexylamino)-N-(2-(methylamino)ethyl)benzenesulfonamide Hydrochloride] | >200 |  |  |  |  | 214 |
| Cl.NCCNS(=O)(=O)c1ccc(NC2CCCCC2)c(N)c1 [Compound 28, 3-amino-N-(2-aminoethyl)-4-(cyclohexylamino)benzenesulfonamide Hydrochloride] | >200 |  |  |  |  | 306 |
| Nc1cc(S(=O)(=O)NCCN2CCNCC2)ccc1NC1CCCCC1 [Compound 29, 3-amino-4-(cyclohexylamino)-N-(2-(piperazin-1-yl)ethyl)benzenesulfonamide] | >200 |  |  |  |  | 296 |
| CN(C)CCNS(=O)(=O)c1ccc(NC2CCCCC2)c(NCc2ccccc2)c1 [Compound 30, 3-(benzylamino)-4-(cyclohexylamino)-N-(2-(dimethylamino)ethyl)benzenesulfonamide] | >200 |  |  |  |  | 554 |
| CN1CCN(CCNS(=O)(=O)c2ccc(NC3CCCCC3)c(NCc3ccccc3)c2)CC1 [Compound 34, 3-(benzylamino)-4-(cyclohexylamino)-N-(2-(4-methylpiperazin-1-yl)ethyl)benzenesulfonamide] | >200 |  |  |  |  | 1070 |

Further lines, with some results ahead:

| Solubility (kinetic) [3] [µM] | Compound | Microsomal stability (t1/2), Human [1] [min] | IC50 [2] [nM] | Protection against organ damage: plasma lactate dehydrogenase (LDH) and creatine kinase levels, prophylactic setting ([4]; ~10 mg/kg iv 15 min before FeSO4 300 mg/kg ip, plasma 2 h after challenge (FIG. 5A)) | Protection against organ damage: plasma lactate dehydrogenase (LDH) and creatine kinase levels, therapeutic setting ([4]; ~10 mg/kg iv 30 min after FeSO4 300 mg/kg ip, plasma 8 h after challenge (FIG. 5B)) | IC50 ([2]; Homo sapiens) [nM] |
| --- | --- | --- | --- | --- | --- | --- |
| 25 to 50 | COCCNS(=O)(=O)c1ccc(NC2CCCCC2)c(NCc2ccccc2)c1 [Compound 36, 3-(benzylamino)-4-(cyclohexylamino)-N-(2-methoxyethyl)benzenesulfonamide] |  |  |  |  | 22 |
| >200 | CN(C)CCNS(=O)(=O)c1ccc(NC2CCCCC2)c(NCc2ccncc2)c1 [Compound 40, 4-(cyclohexylamino)-N-(2-(dimethylamino)ethyl)-3-((pyridin-4-ylmethyl)amino)benzenesulfonamide] |  |  |  |  | 1560 |
| >200 | CN1CCN(CCNS(=O)(=O)c2ccc(NC3CCCCC3)c(NCc3ccncc3)c2)CC1 [Compound 44, 4-(cyclohexylamino)-N-(2-(4-methylpiperazin-1-yl)ethyl)-3-((pyridin-4-ylmethyl)amino)benzenesulfonamide] |  |  |  |  | 1520 |
| >200 | O=S(=O)(NCCN1CCOCC1)c1ccc(NC2CCCCC2)c(NCc2ccncc2)c1 [Compound 45, 4-(cyclohexylamino)-N-(2-morpholinoethyl)-3-((pyridin-4-ylmethyl)amino)benzenesulfonamide] |  |  |  |  | 191 |
| >200 | COCCNS(=O)(=O)c1ccc(NC2CCCCC2)c(NCc2ccncc2)c1 [Compound 46, 4-(cyclohexylamino)-N-(2-methoxyethyl)-3-((pyridin-4-ylmethyl)amino)benzenesulfonamide] |  |  |  |  | 97 |
| >200 | CNCCNS(=O)(=O)c1ccc(NC2CCCCC2)c(NCc2ccncc2)c1.Cl [Compound 47, 4-(cyclohexylamino)-N-(2-(methylamino)ethyl)-3-((pyridin-4-ylmethyl)amino)benzenesulfonamide Hydrochloride] |  |  |  |  | 157 |
| 100 to 200 | Cl.NCCNS(=O)(=O)c1ccc(NC2CCCCC2)c(NCc2ccncc2)c1 [Compound 48, N-(2-aminoethyl)-4-(cyclohexylamino)-3-((pyridin-4-ylmethyl)amino)benzenesulfonamide Hydrochloride] |  |  |  |  | 112 |
| >200 | Cl.O=S(=O)(NCCN1CCNCC1)c1ccc(NC2CCCCC2)c(NCc2ccncc2)c1 [Compound 49, 4-(cyclohexylamino)-N-(2-(piperazin-1-yl)ethyl)-3-((pyridin-4-ylmethyl)amino)benzenesulfonamide Hydrochloride] |  |  |  |  | 442 |
